Data from US20160368898A1, “2-PYRIDYLOXY-4-METHYL OREXIN RECEPTOR ANTAGONISTS” (MERCK SHARP & DOHME CORP., priority 2013, published 2016).
pIC50: −log10 of the molar value.

Columns and labels:
[1] = target: T1, human orexin-2 receptor (hOX2R) (Homo sapiens, UniProt O43614); assay: FLIPR Ca2+ Flux Assay, CHO cells expressing the human orexin-2 receptor; assay type: cell-based; conditions: agonist 70 pM Ala-6,12 human orexin-A
T1 construct: expressed in transfected cells; host or cells: CHO cells (grown under G418)
T1 sequence (O43614 1-444): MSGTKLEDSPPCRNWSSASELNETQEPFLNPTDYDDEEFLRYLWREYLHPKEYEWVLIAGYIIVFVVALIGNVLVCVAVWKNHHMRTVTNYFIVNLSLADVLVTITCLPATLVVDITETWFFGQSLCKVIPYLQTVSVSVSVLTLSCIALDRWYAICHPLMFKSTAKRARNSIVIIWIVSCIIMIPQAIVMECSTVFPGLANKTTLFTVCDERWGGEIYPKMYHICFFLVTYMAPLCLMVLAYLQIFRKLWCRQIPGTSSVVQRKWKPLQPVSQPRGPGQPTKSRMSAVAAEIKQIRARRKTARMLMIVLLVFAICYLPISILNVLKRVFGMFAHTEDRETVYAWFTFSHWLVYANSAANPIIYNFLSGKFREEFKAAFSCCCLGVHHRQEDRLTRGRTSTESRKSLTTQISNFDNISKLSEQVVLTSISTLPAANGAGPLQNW
Method: The utility of the compounds in accordance with the present invention as orexin receptor OX1R and/or OX2R antagonists may be readily determined without undue experimentation by methodology well known in the art, including the “FLIPR Ca^2+ Flux Assay” (Okumura et al., Biochem. Biophys. Res. Comm. 280:976-981, 2001). In a typical experiment the OX1 and OX2 receptor antagonistic activity of the compounds of the present invention was determined in accordance with the following experimental method. For intracellular calcium measurements, Chinese hamster ovary (CHO) cells expressing the rat orexin-1 receptor or the human orexin-2 receptor, are grown in Iscove's modified DMEM containing 2 mM L-glutamine, […], 1% hypoxanthine-thymidine supplement, 100 U/ml penicillin, 100 μg/ml streptomycin and 10% heat-inactivated fetal calf serum (FCS). The cells are seeded at 20,000 cells/well into Becton-Dickinson black 384-well clear bottom sterile plates coated with poly-D-lysine. All reagents were from GIBCO-Invitrogen Corp. The seeded plates are incubated overnight at 37° C. and 5% CO2. Ala-6,12 human orexin-A as the agonist is prepared as a 1 mM stock solution in 1% bovine serum albumin (BSA) and diluted in assay buffer (HBSS containing 20 mM HEPES, 0.1% BSA and 2.5 mM probenecid, pH7.4) for use in the assay at a final concentration of 70 pM. Test compounds are prepared as 10 mM stock solution in DMSO, then diluted in 384-well plates, first in DMSO, then assay buffer. On the day of the assay, cells are washed 3 times with 100 μl assay buffer and then incubated for 60 min (37° C., 5% CO2) in 60 μl assay buffer containing 1 μM Fluo-4AM ester, 0.02% pluronic acid, and 1% BSA. The dye loading solution is then aspirated and cells are washed 3 times with 100 μl assay buffer. 30 μl of that same buffer is left in each well. Within the Fluorescent Imaging Plate Reader (FLIPR, Molecular Devices), test compounds are added to the plate in a volume of 25 μl, incubated for 5 min and finally 25 μl of agonist is added. Fluorescence is measured for each well at 1 second intervals for 5 minutes and the height of each fluorescence peak is compared to the height of the fluorescence peak induced by 70 pM Ala-6,12 orexin-A with buffer in place of antagonist. For each antagonist, IC50 value (the concentration of compound needed to inhibit 50% of the agonist response) is determined. Alternatively, compound potency can be assessed by a radioligand binding assay (described in Bergman et. al. Bioorg. Med. Chem. Lett. 2008, 18, 1425-1430) in which the inhibition constant (Ki) is determined in membranes prepared from CHO cells expressing either the OX1 or OX2 receptor. The intrinsic orexin receptor antagonist activity of a compound which may be used in the present invention may be determined by these assays.

[2] = target: T2, hOX1R (Homo sapiens, UniProt O43613); assay: FLIPR Ca2+ Flux Assay, CHO cells expressing the orexin-1 receptor; assay type: cell-based; conditions: agonist 70 pM Ala-6,12 human orexin-A
T2 construct: expressed in transfected cells; host or cells: CHO cells (grown under G418)
T2 sequence (O43613 1-425): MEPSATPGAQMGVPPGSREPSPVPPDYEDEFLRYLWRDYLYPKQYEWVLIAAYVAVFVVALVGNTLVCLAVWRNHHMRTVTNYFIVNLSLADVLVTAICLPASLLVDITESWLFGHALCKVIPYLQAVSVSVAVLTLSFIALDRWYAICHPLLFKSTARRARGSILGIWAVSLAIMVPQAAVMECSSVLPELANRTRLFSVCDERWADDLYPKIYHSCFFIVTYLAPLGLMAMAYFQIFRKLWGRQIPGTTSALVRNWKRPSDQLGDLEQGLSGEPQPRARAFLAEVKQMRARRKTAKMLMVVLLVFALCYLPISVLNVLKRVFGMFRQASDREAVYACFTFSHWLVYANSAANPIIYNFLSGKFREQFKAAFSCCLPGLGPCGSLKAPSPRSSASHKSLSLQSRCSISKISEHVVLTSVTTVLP

| Structure (SMILES) | pIC50 [1] | pIC50 [2] |
| --- | --- | --- |
| Cc1ccnc(O[C@@H]2CC[C@@H](C)N(C(=O)c3ccccc3-n3nccn3)C2)c1 [Example 1, 4-Methyl-2-{[(3R,6R)-6-methyl-1-{[2-(2H-1,2,3-triazol-2-yl)phenyl]carbonyl}piperidin-3-yl]oxy}pyridine] | 7.80 | – |
| Cc1ccnc(O[C@@H]2CC[C@@H](C)N(C(=O)c3ccccc3-n3ncnn3)C2)c1 [Example 2, (2-(2H-Tetrazol-2-yl)phenyl)((2R,5R)-2-methyl-5-((4-methylpyridin-2-yl)oxy)piperidin-1-y1)methanone] | 7.77 | 5.83 |
| Cc1ccnc(O[C@@H]2CC[C@@H](C)N(C(=O)c3ccsc3-n3nccn3)C2)c1 [Example 3, 4-methyl-2-{[(3R,6R)-6-methyl-1-{[2-(2H-1,2,3-triazol-2-yl)thiophen-3-yl]carbonyl}piperidin-3-yl]oxy}pyridine] | 7.36 | 5.78 |
| Cc1ccnc(O[C@@H]2CC[C@@H](C)N(C(=O)c3c(F)cccc3-n3nccn3)C2)c1 [Example 4, 2-{[(3R,6R)-1-{[2-fluoro-6-(2H-1,2,3-triazol-2-yl)phenyl]carbonyl}-6-methylpiperidin-3-yl]oxy}-4-methylpyridine] | 7.55 | 6.06 |
| Cc1ccnc(O[C@@H]2CC[C@@H](C)N(C(=O)c3ccc(Cl)cc3-n3nccn3)C2)c1 [Example 5, 2-{[(3R,6R)-1-{[4-chloro-2-(2H-1,2,3-triazol-2-yl)phenyl]carbonyl}-6-methylpiperidin-3-yl]oxy}-4-methylpyridine] | 7.54 | 5.79 |
| Cc1ccnc(O[C@@H]2CC[C@@H](C)N(C(=O)c3ccc(F)cc3-n3nccn3)C2)c1 [Example 6, 2-{[(3R,6R)-1-{[4-fluoro-2-(2H-1,2,3-triazol-2-yl)phenyl]carbonyl}-6-methylpiperidin-3-yl]oxy}-4-methylpyridine] | 7.46 | 5.64 |
| Cc1ccnc(O[C@@H]2CC[C@@H](C)N(C(=O)c3ccc(C)cc3-n3nccn3)C2)c1 [Example 7, 4-methyl-2-{[(3R,6R)-6-methyl-1-{[4-methyl-2-(2H-1,2,3-triazol-2-yl)phenyl]carbonyl}piperidin-3-yl]oxy}pyridine] | 7.23 | 5.63 |
| COc1ccc(C(=O)N2C[C@H](Oc3cc(C)ccn3)CC[C@H]2C)c(-n2nccn2)n1 [Example 8, 6-methoxy-3-({(2R,5R)-2-methyl-5-[(4-methylpyridin-2-yl)oxy]piperidin-1-yl}carbonyl)-2-(2H-1,2,3-triazol-2-yl)pyridine] | 6.93 | < 5.00 |
| Cc1ccnc(O[C@@H]2CC[C@@H](C)N(C(=O)c3ncccc3-n3nccn3)C2)c1 [Example 9, 2-({(2R,5R)-2-methyl-5-[(4-methylpyridin-2-yl)oxy]piperidin-1-yl}carbonyl)-3-(2H-1,2,3-triazol-2-yl)pyridine] | 7.35 | 5.75 |
| Cc1ccnc(O[C@@H]2CC[C@@H](C)N(C(=O)c3ccccc3C3(C#N)CC3)C2)c1 [Example 10, 1-[2-({(2R,5R)-2-methyl-5-[(4-methylpyridin-2-yl)oxy]piperidin-1-yl}carbonyl)phenyl]cyclopropanecarbonitrile] | 7.55 | 5.92 |
| Cc1ccnc(O[C@@H]2CC[C@@H](C)N(C(=O)c3cc(F)ccc3-n3nccn3)C2)c1 [Example 11, 2-{[(3R,6R)-1-{[5-fluoro-2-(2H-1,2,3-triazol-2-yl)phenyl]carbonyl}-6-methylpiperidin-3-yl]oxy}-4-methylpyridine] | 7.49 | 5.98 |
| Cc1ccnc(O[C@@H]2CC[C@@H](C)N(C(=O)c3ccc(F)cc3-c3nc(C)no3)C2)c1 [Example 12, 2-{[(3R,6R)-1-{[4-fluoro-2-(3-methyl-1,2,4-oxadiazol-5-yl)phenyl]carbonyl}-6-methylpiperidin-3-yl]oxy}-4-methylpyridine] | 6.52 | 5.02 |
| Cc1ccnc(O[C@@H]2CC[C@@H](C)N(C(=O)c3cccc(F)c3-n3nccn3)C2)c1 [Example 13, 2-{[(3R,6R)-1-{[3-fluoro-2-(2H-1,2,3-triazol-2-yl)phenyl]carbonyl}-6-methylpiperidin-3-yl]oxy}-4-methylpyridine] | 7.59 | 6.02 |
| Cc1ccnc(O[C@@H]2CC[C@@H](C)N(C(=O)c3ccccc3CS(C)(=O)=O)C2)c1 [Example 14, 4-methyl-2-{[(3R,6R)-6-methyl-1-({2-[(methylsulfonyl)methyl]phenyl}carbonyl)piperidin-3-yl]oxy}pyridine] | 7.14 | < 5.00 |
| COCc1ccccc1C(=O)N1C[C@H](Oc2cc(C)ccn2)CC[C@H]1C [Example 15, 2-{[(3R,6R)-1-{[2-(methoxymethyl)phenyl]carbonyl}-6-methylpiperidin-3-yl]oxy}-4-methylpyridine] | 6.65 | < 5.00 |
| Cc1ccnc(O[C@@H]2CC[C@@H](C)N(C(=O)c3nccnc3-c3ccccn3)C2)c1 [Example 16, 2-({(2R,5R)-2-methyl-5-[(4-methylpyridin-2-yl)oxy]piperidin-1-yl}carbonyl)-3-pyridin-2-ylpyrazine] | 7.40 | 5.51 |
| Cc1ccnc(O[C@@H]2CC[C@@H](C)N(C(=O)c3cccnc3-n3cc(C)cn3)C2)c1 [Example 17, 3-({(2R,5R)-2-methyl-5-[(4-methylpyridin-2-yl)oxy]piperidin-1-yl}carbonyl)-2-(4-methyl-1H-pyrazol-1-yl)pyridine] | 7.48 | 5.76 |
| Cc1ccnc(O[C@@H]2CC[C@@H](C)N(C(=O)c3ncccc3-c3noc(C)n3)C2)c1 [Example 18, 2-({(2R,5R)-2-methyl-5-[(4-methylpyridin-2-yl)oxy]piperidin-1-yl}carbonyl)-3-(5-methyl-1,2,4-oxadiazol-3-yl)pyridine] | 6.97 | 5.15 |
| Cc1ccnc(O[C@@H]2CC[C@@H](C)N(C(=O)c3ccccc3-c3ncccn3)C2)c1 [Example 19, ((2R,5R)-2-methyl-5-((4-methylpyridin-2-yl)oxy)piperidin-1-yl)(2-(pyrimidin-2-yl)phenyl)methanone] | 7.57 | 6.01 |
| Cc1ccnc(O[C@@H]2CC[C@@H](C)N(C(=O)c3ccc(F)cc3-c3ncccn3)C2)c1 [Example 20, 2-[5-fluoro-2-({(2R,5R)-2-methyl-5-[(4-methylpyridin-2-yl)oxy]piperidin-1-yl}carbonyl)phenyl]pyrimidine] | 7.38 | 5.80 |
| Cc1ccnc(O[C@@H]2CC[C@@H](C)N(C(=O)c3ccsc3-c3ncccn3)C2)c1 [Example 21, 2-[3-({(2R,5R)-2-methyl-5-[(4-methylpyridin-2-yl)oxy]piperidin-1-yl}carbonyl)thiophen-2-yl]pyrimidine] | 7.16 | 5.67 |
